According to PMC7435868, “Structure-Based Virtual Screening, Synthesis and Biological Evaluation of Potential FAK-FAT Domain Inhibitors for Treatment of Metastatic Cancer” (Molecules, 2020):
Where a name gives a salt, the structure may show the parent alone. Read-outs that look alike come from different tables or passages of the source.

Assays:
T47D = assay: Cell viability assay (CellTiter Glo), T47D; format: cell-based, human; details: 72 h incubation, mean of independent triplicate experiments, read-out: In vitro anti-proliferative activity IC50, T47D ER+ PR+/- HER-
Protocol: (§1) The antiproliferative activity of compound I as well as its newly synthesised analogues (5a–i) was evaluated in vitro against the three human breast cancer cell lines MDA-MB-231 (TNBC), T47D (ER^+, HER^−), and BT474 (ER^+, HER^+) as well as a human pancreatic cancer cell line MIAPaCa2. The seeding of the corresponding cell lines started one day before incubation, which lasted for 72 h with the different concentrations of the tested compounds. CellTiter Glo reagent (25 μL) was added to the cell plate. The luminescence was analysed after 10 min using a PerkinElmer Envision instrument. The test compounds were used at ten different triplicate concentrations in half log increments up to 100 μM.

MDA-MB-231 = assay: Cell viability assay (CellTiter Glo), MDA-MB-231; format: cell-based; details: Homo sapiens, 72 h incubation, mean of independent triplicate experiments, read-out: In vitro anti-proliferative activity IC50, MDA-MB-231 ER- PR- HER-
Protocol: as §1

MIAPaCa2 = assay: Cell viability assay (CellTiter Glo), MIAPaCa2; format: cell-based; details: Homo sapiens, MIA PaCa-2, 72 h incubation, mean of independent triplicate experiments, read-out: In vitro anti-proliferative activity IC50, MIAPaCa2
Protocol: as §1

BT474 = assay: Cell viability assay (CellTiter Glo), BT474; format: cell-based, human; details: 72 h incubation, mean of independent triplicate experiments, read-out: In vitro anti-proliferative activity IC50, BT474 ER+ PR+/- HER+
Protocol: as §1

hERG potassium channel = hERG potassium channel (Homo sapiens, UniProt Q12809); assay: hERG channel inhibition (IonWorks automated patch clamp, CHO-hERG cells)
Sequence of hERG potassium channel (Q12809 whole entry): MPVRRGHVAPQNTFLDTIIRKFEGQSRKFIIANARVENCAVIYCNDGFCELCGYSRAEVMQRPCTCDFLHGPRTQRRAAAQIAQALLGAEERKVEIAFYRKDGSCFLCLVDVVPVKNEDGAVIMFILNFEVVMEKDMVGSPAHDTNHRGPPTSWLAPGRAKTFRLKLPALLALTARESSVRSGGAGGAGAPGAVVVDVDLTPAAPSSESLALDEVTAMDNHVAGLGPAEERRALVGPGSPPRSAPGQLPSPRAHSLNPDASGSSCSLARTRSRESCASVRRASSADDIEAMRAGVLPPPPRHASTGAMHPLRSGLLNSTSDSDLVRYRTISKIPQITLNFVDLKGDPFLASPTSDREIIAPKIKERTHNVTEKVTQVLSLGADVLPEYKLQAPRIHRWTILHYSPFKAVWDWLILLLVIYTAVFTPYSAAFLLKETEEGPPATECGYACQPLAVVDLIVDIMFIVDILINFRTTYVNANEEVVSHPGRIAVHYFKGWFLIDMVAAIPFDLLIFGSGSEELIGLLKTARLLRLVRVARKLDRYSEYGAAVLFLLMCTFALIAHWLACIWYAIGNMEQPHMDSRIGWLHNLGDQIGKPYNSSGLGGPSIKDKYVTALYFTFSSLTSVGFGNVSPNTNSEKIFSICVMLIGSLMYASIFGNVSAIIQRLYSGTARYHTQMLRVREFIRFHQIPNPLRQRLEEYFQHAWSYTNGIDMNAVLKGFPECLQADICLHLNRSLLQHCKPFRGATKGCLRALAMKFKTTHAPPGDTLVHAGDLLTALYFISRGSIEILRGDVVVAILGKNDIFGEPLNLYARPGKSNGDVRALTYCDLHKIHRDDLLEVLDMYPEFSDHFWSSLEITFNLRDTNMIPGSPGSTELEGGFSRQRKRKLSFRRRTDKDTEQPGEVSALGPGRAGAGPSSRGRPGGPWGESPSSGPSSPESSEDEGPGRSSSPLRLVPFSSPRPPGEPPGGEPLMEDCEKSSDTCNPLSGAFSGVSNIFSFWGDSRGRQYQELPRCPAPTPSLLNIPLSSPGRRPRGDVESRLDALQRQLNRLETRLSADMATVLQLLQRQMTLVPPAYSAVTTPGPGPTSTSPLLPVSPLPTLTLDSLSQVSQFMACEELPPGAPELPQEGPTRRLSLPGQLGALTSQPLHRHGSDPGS

[1] = Turbidimetric aqueous solubility; format: physicochemical; details: 37 °C, 2 h; for Estimated Precipitation Range, Calculated Mid-Range / Estimated Precipitation Range, Lower Bound / Estimated Precipitation Range, Upper Bound: buffered aqueous solution (PBS pH 7.4, 1% DMSO); for Aqueous solubility (in words): turbidimetric
Protocol: Both the estimated precipitation range (lower and upper bound) and a mid-range value were measured. Nicardipine and pyrene were used as control compounds.
The test compound was diluted in buffer to give a range of concentrations (1, 3, 10, 30, and 100 μM; final DMSO concentration 1%) and incubated at 37 °C for 2 hr.
The test compound (10 mM in DMSO) was serially diluted to give solutions of 0.1, 0.3, 1, and 3 mM in DMSO. Each test compound concentration was then further diluted 1 to 100 in buffer (typically 0.01 M phosphate buffered saline pH 7.4) so that the final DMSO concentration was 1%, and the final test compound concentrations were 1, 3, 10, 30, and 100 μM. The experiment was performed at 37 °C and each concentration was incubated in 7 replicate wells. The plates were incubated for 2 h at 37 °C before the absorbance was measured at 620 nm. Nicardipine and pyrene were included as control compounds. The solubility of nicardipine is pH dependent whereas the solubility of pyrene is pH independent.
An estimated precipitation range (lower and upper bound) and a calculated mid-range value were returned, along with any relevant comments, in the form of an Excel spreadsheet.

[2] = Microsomal metabolic stability; details: for Compound Remaining (% of 0 min), 0 min / Compound Remaining (% of 0 min), 5 min / Compound Remaining (% of 0 min), 15 min / Compound Remaining (% of 0 min), 30 min / Compound Remaining (% of 0 min), 45 min / Compound Remaining (% of 0 min), Control: human liver microsomes; for Compound Remaining (% of 0 min), Control: minus NADPH control; for Compound Remaining (% of 0 min), 45 min / Compound Remaining (% of 0 min), Control: 45 min; for half-life at 3 μM / microsomal CLint at 3 μM: human, pH 7.4
Protocol: Half-life (t1/2) values were measured at five time points.
Intrinsic clearance values (CLint) with standard error and t1⁄2 values were measured.
The final incubation volume was 50 μL. A minus cofactor control incubation was included for each compound tested where 0.1 M phosphate buffer pH 7.4 was added instead of NADPH (minus NADPH). Two control compounds were included with each species. All incubations were performed singularly for each test compound.
The reactions were stopped by transferring 20 μL of incubate to 60 μL methanol at the appropriate time points. The termination plates were centrifuged at 2500 rpm for 20 min at 4 °C to precipitate the protein.
Following protein precipitation, the sample supernatants were combined in cassettes of up to 4 compounds, the internal standard was added, and samples were analysed using Cyprotex generic LC-MS/MS conditions.
From a plot of ln peak area ratio (compound peak area/internal standard peak area) against time, the gradient of the line was determined.

[3] = system: MDA-MB-231, T47D, BT474, and MIAPaCa2; assay: Cell viability assay, statements across the four cell lines; format: cell-based, human; details: for Anti-proliferative activity (in words) across the four cell lines: three human breast and one pancreatic cancer cell line, up to 100 μM
Protocol: as §1

[4] = parameters: method as in PMID 19610651, PMID 24780592; details: cited from earlier work

SMILES	IC50 (T47D; Homo sapiens, T47D, 72 h) [µM]	IC50 (MDA-MB-231) [µM]	IC50 (MIAPaCa2) [µM]	IC50 (BT474; Homo sapiens, BT-474, 72 h) [µM]	Estimated Precipitation Range, Calculated Mid-Range [1] [µM]	Estimated Precipitation Range, Lower Bound [1] [µM]	Estimated Precipitation Range, Upper Bound [1] [µM]	Aqueous solubility (in words) [1]	Compound Remaining (% of 0 min), 0 min [2]	Compound Remaining (% of 0 min), 5 min [2]	Compound Remaining (% of 0 min), 15 min [2]	Compound Remaining (% of 0 min), 30 min [2]	Compound Remaining (% of 0 min), 45 min [2]	Compound Remaining (% of 0 min), Control [2]	microsomal CLint at 3 μM ([2]; pooled liver microsomes) [µL/min/mg]	half-life at 3 μM ([2]; pooled liver microsomes) [h]	further results
CC(C)(C)c1ccc(C(CN)c2ccc(C(C)(C)C)cc2)cc1.Cl [5f, 2,2-Bis(4-tert-butylphenyl)ethan-1-aminium chloride]	4.7	5.06	5.28	4.59	3.75	1	6.5	relatively reduced solubility comparable to pyrene	100 % of 0 min	97.2 % of 0 min	92.2 % of 0 min	88.0 % of 0 min	80.7 % of 0 min	88.0 % of 0 min	9.34		IC50 (T47D): 4.59 µM; IC50 (BT474): 4.7 µM; half-life at 3 μM ([2]; microsomes): 2.47 h; IC50 ([3]; Homo sapiens, MDA-MB-231, T47D, BT474, and MIAPaCa2, read-out: IC50 values range across cell lines): 4.59 to 5.28 µM; Anti-proliferative activity (in words) across the four cell lines [3]: low micromolar antiproliferative activity; IC50 (hERG potassium channel): > 25 µM
c1cc2ccc3cccc4ccc(c1)c2c34 [pyrene, reference compound]					6.5	3	10										
CN(C)CCN(Cc1ccc(Cl)cc1)c1ccccn1 [C4, chloropyramine hydrochloride, reference compound]	> 100	99	> 100	> 100													Concentration at which anticancer activity is displayed [4]: > 100 µM; Anti-proliferative activity (in words) across the four cell lines [3]: did not show any significant anti-proliferative activity up to a concentration of 100 μM
Cl.NCC(c1ccc(OC(F)(F)F)cc1)c1ccc(OC(F)(F)F)cc1 [5h, 2,2-Bis(4-trifluoromethoxyphenyl)ethan-1-aminium chloride]	13.2	12.8	39.9	13.2	65	30	100	moderate solubility	100 % of 0 min	102 % of 0 min	108 % of 0 min	100 % of 0 min	95.8 % of 0 min	97.8 % of 0 min	2.35	9.82	
CC(C)(C)c1ccc(C(CN)c2ccc(OC(F)(F)F)cc2)cc1 (centres unmarked) [5a, 2-(4-tert-butylphenyl)-2-(4-trifluoromethoxyphenyl)ethan-1-aminium hydrochloride]	4.94	5.63	5.51	5	65	30	100	moderate solubility	100 % of 0 min	95.8 % of 0 min	92.3 % of 0 min	86.0 % of 0 min	81.4 % of 0 min	91.0 % of 0 min	8.91	2.6	IC50 (hERG potassium channel): 3.59 µM
CC(C)(C)c1ccc(C(CN)c2ccc(SC(F)(F)F)cc2)cc1.Cl (centres unmarked) [5b, 2-(4-tert-butylphenyl)-2-(4-(trifluoromethyl)thiophenyl)ethan-1-aminium chloride]	11.4	11.8	15.7	12.5	11.5	3	20	relatively reduced solubility comparable to pyrene									

The next lines start with results.

IC50 (T47D; Homo sapiens, T47D, 72 h) [µM]	IC50 (MDA-MB-231) [µM]	IC50 (MIAPaCa2) [µM]	IC50 (BT474; Homo sapiens, BT-474, 72 h) [µM]	Estimated Precipitation Range, Calculated Mid-Range [1] [µM]	Estimated Precipitation Range, Lower Bound [1] [µM]	Estimated Precipitation Range, Upper Bound [1] [µM]	Aqueous solubility (in words) [1]	Compound Remaining (% of 0 min), 0 min [2]	Compound Remaining (% of 0 min), 5 min [2]	Compound Remaining (% of 0 min), 15 min [2]	Compound Remaining (% of 0 min), 30 min [2]	Compound Remaining (% of 0 min), 45 min [2]	Compound Remaining (% of 0 min), Control [2]	microsomal CLint at 3 μM ([2]; pooled liver microsomes) [µL/min/mg]	half-life at 3 μM ([2]; pooled liver microsomes) [h]	SMILES	further results
43.9	46.2	49	44.5													COc1ccc(C(CN)c2ccc(OC)cc2)cc1 [5i, 2,2-Bis(4-methoxyphenyl)ethan-1-aminium chloride]	IC50 (hERG potassium channel): 6.01 µM
14.7	14.8	15.8	14.8													CC(C)(C)c1ccc(C(CN)c2ccccc2F)cc1 (centres unmarked) [5d, 2-(4-tert-butylphenyl)-2-(2-fluorophenyl)ethan-1-aminium chloride]	
15.3	16.9	45.3	15.5					100 % of 0 min	99.0 % of 0 min	96.2 % of 0 min	86.8 % of 0 min	72.8 % of 0 min	86.6 % of 0 min	13.9	1.67	Cl.NCC(c1ccc(Cl)cc1)c1ccc(OC(F)(F)F)cc1 (centres unmarked) [5g, 2-(4-chlorophenyl)-2-(4-trifluoromethoxyphenyl)ethan-1-aminium chloride]	
						30										COC(=O)C1=C(C)NC(C)=C(C(=O)OCCN(C)Cc2ccccc2)C1c1cccc([N+](=O)[O-])c1 (centres unmarked) [nicardipine, reference compound]	
13.4	12.8	15.1	8.94	>100	100	>100	high aqueous solubility	100 % of 0 min	94.7 % of 0 min	95.0 % of 0 min	86.1 % of 0 min	82.5 % of 0 min	98.0 % of 0 min	8.26	2.8	CC(C)(C)c1ccc(C(CN)c2ccc(F)cc2)cc1.Cl (centres unmarked) [5c, 2-(4-tert-butylphenyl)-2-(4-fluorophenyl)ethan-1-aminium chloride]	
14.4	14.1	17	15													CC(C)(C)c1ccc(C(CN)c2cccc(F)c2)cc1 (centres unmarked) [5e, 2-(4-tert-butylphenyl)-2-(3-fluorophenyl)ethan-1-aminium chloride]	
